Laboratory results reported in patent EP0041644B1 (priority 1980, dated 1981).
Read-outs that look alike come from different tables or passages of the source.

Tests used:
[1] = Water solubility
[2] = test system: L-1210 Leukemia; experiment: L-1210 Leukemia (Table IX); type: in vivo, mice
Experimental: The sodium and ammonium salts of the present invention were tested against transplantable mouse tumors as indicated below.

[3] = test system: B16 Melanoma; experiment: B16 Melanoma - Test 1 (ip tumor brei); type: in vivo, mice; conditions: for Effect MST % T/C / MST Days: QD 1→9, vehicle H2O
[4] = test system: L1210 Leukemia; experiment: L1210 Leukemia - Test 1 (survival of tumor-bearing mice); type: in vivo; conditions: for Effect MST % T/C / MST Days: d. 1 only
Excerpt: This evaluation of the ammonium salt finds the drug to be active against L1210 (ip) leukemia when administered ip one day post-implant of 10^6 L1210 cells (maximum T/C was 164%). […] The vehicle for the ammonium salt was water.

[5] = test system: L1210 Leukemia; experiment: L1210 Leukemia - Test 3 (vehicle comparison); type: in vivo, mice; conditions: for Effect MST % T/C / MST Days: Day 1 only
[6] = test system: B16 Melanoma; experiment: B16 Melanoma - Test 2 (ip tumor brei); type: in vivo, mice; conditions: QD +9

## O=C1[O][Pt-2]2([NH2+]CC3(CCCCC3)C[NH2+]2)[O]C(=O)C1O [2-hydroxymalonato (1,1-diaminomethylcyclohexane)platinum (II)]
[1]
  Water-solubility at room temperature: < 1600 µg/mL
[2]; 2 mg/kg/inj ip, qd 1→9
  Average Weight Change,g: -1.3 g
  Effect MST % T/C: 138 % T/C
  MST Days: 9.0 days
  Survivors Day 5(45): 6/6
[2]; 4 mg/kg/inj ip, qd 1→9
  Average Weight Change,g: -1.7 g
  Effect MST % T/C: 192 % T/C
  MST Days: 12.5 days
  Survivors Day 5(45): 6/6
[2]; 8 mg/kg/inj ip, qd 1→9
  Average Weight Change,g: -2.1 g
  Effect MST % T/C: 269 % T/C
  MST Days: 17.5 days
  Survivors Day 5(45): 6/6
[2]; 12 mg/kg/inj ip, Day 1
  Average Weight Change,g: -1.6 g
  Effect MST % T/C: 185 % T/C
  MST Days: 12.0 days
  Survivors Day 5(45): 6/6
[2]; 12 mg/kg/inj ip, qd 1→9
  Average Weight Change,g: -2.1 g
  Effect MST % T/C: 269 % T/C
  MST Days: 17.5 days
  Survivors Day 5(45): 6/6
[2]; 18 mg/kg/inj ip, Day 1
  Average Weight Change,g: -2.0 g
  Effect MST % T/C: 169 % T/C
  MST Days: 11.5 days
  Survivors Day 5(45): 6/6
[2]; 24 mg/kg/inj ip, Day 1
  Average Weight Change,g: -2.8 g
  Effect MST % T/C: 223 % T/C
  MST Days: 14.5 days
  Survivors Day 5(45): 6/6
[2]; 36 mg/kg/inj ip, Day 1
  Average Weight Change,g: -3.6 g
  Effect MST % T/C: 246 % T/C
  MST Days: 16.0 days
  Survivors Day 5(45): 5/6
[2]; qd 1→9 (cis-DDP 2.4, parent 8 and 12, sodium salt 12 mg/kg/injection)
  maximum T/C: 269%
[2]; single ip injection at maximum tolerated dose (cis-DDP 8 mg/kg, the two others 36 mg/kg)
  maximum T/C: 246%

## [NH2][Pt]1([NH2])[O]C(=O)C([O-])C(=O)[O]1.[NH4+] [Example 1, 2-Hydroxymalonato diammine platinum (II), ammonium salt]
other
  Water-solubility at room temperature: 10000 µg/mL
water
  Solubility in H2O at 22-25°C: 10000 µg/mL
[3]; 4 mg/kg/day ip
  Effect MST % T/C: 192 % T/C
  MST Days: 37.5 days
[3]; 8 mg/kg/day ip
  Effect MST % T/C: 190 % T/C
  MST Days: 37.0 days
[3]; 16 mg/kg/day ip
  Effect MST % T/C: 121 % T/C
  MST Days: 23,5 Days
[3]; 24 mg/kg/day ip
  Effect MST % T/C: 36 % T/C
  MST Days: 7.0 days
[3]; 32 mg/kg/day ip
  Effect MST % T/C: 31 % T/C
  MST Days: 6.0 days
[3]; ip B16, ip QD 1→9
  maximum T/C: 190%
[4]; 10 mg/kg/day ip
  Effect MST % T/C: 136 % T/C
  MST Days: 9.5 days
[4]; 20 mg/kg/day ip
  Effect MST % T/C: 129 % T/C
  MST Days: 9.0 days
[4]; 40 mg/kg/day ip
  Effect MST % T/C: 143 % T/C
  MST Days: 10.0 days
[4]; 60 mg/kg/day ip
  Effect MST % T/C: 157 % T/C
  MST Days: 11.0 days
[4]; 80 mg/kg/day ip
  Effect MST % T/C: 157 % T/C
  MST Days: 11.0 days
[4]; 100 mg/kg/day ip
  Effect MST % T/C: 164 % T/C
  MST Days: 11.5 days
[4]; ip one day post-implant of 10^6 L1210 cells, vehicle water
  maximum T/C: 164%
[5]; 40 mg/kg ip, vehicle H2O
  Effect MST % T/C: 143 % T/C
  MST Days: 10.0 days
[5]; 40 mg/kg ip, vehicle Saline
  Effect MST % T/C: 114 % T/C
  MST Days: 8.0 days
[5]; 60 mg/kg ip, vehicle H2O
  Effect MST % T/C: 143 % T/C
  MST Days: 10.0 days
[5]; 60 mg/kg ip, vehicle Saline
  Effect MST % T/C: 100 % T/C
  MST Days: 7.0 days
[5]; 80 mg/kg ip, vehicle H2O
  Effect MST % T/C: 143 % T/C
  MST Days: 10.0 days
[5]; 80 mg/kg ip, vehicle Saline
  Effect MST % T/C: 114 % T/C
  MST Days: 8.0 days
[5]; 100 mg/kg ip, vehicle H2O
  Effect MST % T/C: 107 % T/C
  MST Days: 7.5 days
[5]; 100 mg/kg ip, vehicle Saline
  Effect MST % T/C: 143 % T/C
  MST Days: 10.0 days
[5]; single dose ip, saline and water as vehicles
  Maximum increase in median lifespan (T/C): 143%
[6]; 2 mg/kg/day ip
  Average Weight Change: -0.7 g
  Effect MST % T/C: 153 % T/C
  MST Days: 31.5 days
[6]; 4 mg/kg/day ip
  Average Weight Change: -2.0 g
  Effect MST % T/C: 158 % T/C
  MST Days: 32.5 days
[6]; 8 mg/kg/day ip
  Average Weight Change: -0.9 g
  Effect MST % T/C: 180 % T/C
  MST Days: 37.0 days
[6]; 16 mg/kg/day ip
  Average Weight Change: -1.3 g
  Effect MST % T/C: 234 % T/C
  MST Days: 48.0 days
[6]; Day 10, 2 mg/kg/day ip
  Survivors Day 10 (60): 9/10
[6]; Day 10, 4 mg/kg/day ip
  Survivors Day 10 (60): 9/10
[6]; Day 10, 8 mg/kg/day ip
  Survivors Day 10 (60): 9/10
[6]; Day 10, 16 mg/kg/day ip
  Survivors Day 10 (60): 8/10
[6]; Day 60 (figure in parentheses), 16 mg/kg/day ip
  Survivors Day 10 (60): 2
